The text below walks through data of patent publication US10184115B2, “Mutated cellobiose dehydrogenase with increased substrate specificity” (DIRECTSENS GMBH, priority 2012, dated 2019).

Common to all, as to format: biochemical
Assay [1] deals with T1, Corynascus thermophilus CDH flavodehydrogenase domain, recombinant wild type (wtDH), amino acids 249-787 of SEQ ID NO: 7 (Thermothelomyces fergusii, UniProt E7D6B9).
T1 sequence (E7D6B9 249-787): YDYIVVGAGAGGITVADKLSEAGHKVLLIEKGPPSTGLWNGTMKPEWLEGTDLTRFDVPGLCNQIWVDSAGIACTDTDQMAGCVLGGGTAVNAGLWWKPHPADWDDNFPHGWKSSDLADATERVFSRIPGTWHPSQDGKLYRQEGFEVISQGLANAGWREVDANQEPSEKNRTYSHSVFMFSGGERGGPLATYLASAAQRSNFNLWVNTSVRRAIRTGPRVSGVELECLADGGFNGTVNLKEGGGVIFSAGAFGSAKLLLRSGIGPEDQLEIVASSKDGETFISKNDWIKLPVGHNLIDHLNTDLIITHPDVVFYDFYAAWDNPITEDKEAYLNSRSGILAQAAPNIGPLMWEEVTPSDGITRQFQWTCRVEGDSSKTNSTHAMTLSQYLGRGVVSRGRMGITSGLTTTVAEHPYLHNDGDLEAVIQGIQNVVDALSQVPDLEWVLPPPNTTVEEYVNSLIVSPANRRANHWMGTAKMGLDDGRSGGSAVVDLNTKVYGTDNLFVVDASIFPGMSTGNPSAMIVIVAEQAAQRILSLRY
The assay can be described thus: Steady-state kinetics, DCIP assay: C. thermophilus flavodehydrogenase domain wt. Particulars: apparent, pH 5.5, 30° C. The protocol:
(§1) Enzyme activity was assayed at 30° C. using either the DCIP (Karapetyan et al., 2005 Journal of Biotechnology 121: 34-48) or cytochrome c (Canevascini et al., 1991, European Journal of Biochemistry 198: 43-52) as electron acceptor. […] Stock solutions of carbohydrates used for kinetic measurements were prepared in the respective buffer and allowed to stand overnight for mutarotation, while stock solutions of electron acceptors were prepared in water and immediately used. The reaction stoichiometry is 1 for the two-electron acceptor DCIP (1 mole of DCIP reduced per mole of carbohydrate oxidized), but 2 for the one-electron acceptor cytochrome c. Kinetic constants were calculated by fitting the observed data to the Henri-Michaelis-Menten equation or to the adapted model for substrate inhibition using nonlinear least-squares regression and the program SigmaPlot (Systat Software, San Jose, Calif., USA).
The construct was confirmed by sequencing.
(§2) Recombinant wild-type CDH as well as variants were produced in 1 L baffled flasks. Precultures were grown overnight in 30 mL of YPD medium at 30° C. and 120 rpm. After approximately 18 hours the precultures were transferred into 1 L baffled flasks containing 200 mL BMGY medium without methanol. Induction with methanol was started immediately using a multichannel peristaltic pump (Minipuls Evolution, Gilson, Middleton, Wis., USA). Each flask was supplied eight times a day with methanol yielding a total concentration of 2% (v/v) methanol per day. Increase in activity was monitored using the DCIP and the cytochrome c enzyme assays. Cultivation was stopped at day five of methanol induction, cells removed by centrifugation (4000 rpm, 20 min) and the supernatant set to a final ammonium sulfate concentration of 20%.
The sample was loaded on a 20 mL PHE Sepharose FF column (HR26/20) equilibrated with 50 mM Na-acetate buffer pH 5.5 containing 20% ammonium sulfate. Proteins were eluted by increasing the concentration of the elution buffer (50 mM Na-acetate buffer pH 5.5) from 0 to 100% in 5 column volumes and fractions containing CDH activity were pooled. After diafiltration with a polyethersulfone flat-stack cross flow module with a cut-off of 10 kDa (Viva Flow 50, Sartorius, Göttingen, Germany) until conductivity of 5 mS cm^−1 in 20 mM Na-acetate pH 5.5 the samples were loaded on a 20 mL Q-Source column (HR26/20) equilibrated with a 20 mM Na-acetate buffer pH 5.5. CDH was eluted by increasing the concentration of the elution buffer (50 mM Na-acetate buffer pH 5.5 containing 0.5 M NaCl) from 0 to 100% in 50 column volumes. Fractions were tested for CDH activity and pooled according to the highest Reinheitszahl (RZ, calculated from the absorbance ratio 420 nm/280 nm). […]

Assay [2] addresses Myriococcum thermophilum cellobiose dehydrogenase (CDH, SEQ ID NO: 1) variant C312Y/W316L (Thermothelomyces myriococcoides, UniProt A9XK88, C312Y/W316L). The following applies: apparent, DCIP assay, pH 4.5, 30° C.; for kcat: ~ values only estimated by non linear regression. As for the experimental part:
as §1
(§3) The M. thermophilum CDH gene (EF492051, SEQ ID NO: 2) was codon-optimized for expression in Pichia pastoris according to the method described in Abad et al., 2010 and WO2010/097462 A1 (SEQ ID NO: 13) and synthesized by Gen-script (Piscataway, N.J., USA). cDNA encoding for M. thermophilum CDH was excised from the plasmid pMTSopt using EcoRI and NotI and cloned into the expression vector pPicZA along with its native signal sequence. Plasmid pCT1 was used as template for the amplification of the C. thermophilus CDH cDNA. Restriction enzymes BstBI and XbaI were used for cloning into the expression vector pPicZB along with its native signal sequence. Mutants of M. thermophilum CDH: C312Y, N313S, W316L, W316R, R622N, N721D, C312Y/W316L, C312Y/W316R and C. thermophiles CDH C310Y were prepared by a two step mutagenesis approach using PCR and DpnI (Li et al., 2002). […] SacI linearized expression plasmids were transformed into electrocompetent X-33 cells and transformants were selected on YPD Zeocin plates ([…]).
as §2
(§4) The sample was loaded on a 20 mL PHE Sepharose FF column (HR26/20) equilibrated with 50 mM Na-acetate buffer pH 5.5 containing 20% ammonium sulfate. Proteins were eluted by increasing the concentration of the elution buffer (50 mM Na-acetate buffer pH 5.5) from 0 to 100% in 5 column volumes and fractions containing CDH activity were pooled. After diafiltration with a polyethersulfone flat-stack cross flow module with a cut-off of 10 kDa (Viva Flow 50, Sartorius, Göttingen, Germany) until conductivity of 5 mS cm^−1 in 20 mM Na-acetate pH 5.5 the samples were loaded on a 20 mL Q-Source column (HR26/20) equilibrated with a 20 mM Na-acetate buffer pH 5.5. CDH was eluted by increasing the concentration of the elution buffer (50 mM Na-acetate buffer pH 5.5 containing 0.5 M NaCl) from 0 to 100% in 50 column volumes. Fractions were tested for CDH activity and pooled according to the highest Reinheitszahl (RZ, calculated from the absorbance ratio 420 nm/280 nm). Purified enzymes were concentrated and diafiltered in 50 mM citrate buffer, pH 5.5, aliquoted and kept at 4° C. for further use.

Assay [3] addresses Myriococcum thermophilum cellobiose dehydrogenase (CDH, SEQ ID NO: 1) variant C312Y (Thermothelomyces myriococcoides, UniProt A9XK88, C312Y). The following applies: apparent, DCIP assay, pH 4.5, 30° C. The protocol: as §1, §3, §2, §4
In assay [4] the target is Myriococcum thermophilum cellobiose dehydrogenase (CDH, SEQ ID NO: 1) variant C312Y/W316R (Thermothelomyces myriococcoides, UniProt A9XK88, C312Y/W316R). The following applies: apparent, DCIP assay, pH 4.5, 30° C.; for kcat: ~ values only estimated by non linear regression. The protocol:
as §1, §3, §2, §4

Structures are written as SMILES.

By kcat is commonly meant the maximal rate divided by the concentration of active sites. In general, kcat/KM refers to the turnover number divided by the Michaelis constant.

Myriococcum thermophilum cellobiose dehydrogenase (CDH, SEQ ID NO: 1) variant C312Y, sequence (A9XK88 entry or part of it C312Y): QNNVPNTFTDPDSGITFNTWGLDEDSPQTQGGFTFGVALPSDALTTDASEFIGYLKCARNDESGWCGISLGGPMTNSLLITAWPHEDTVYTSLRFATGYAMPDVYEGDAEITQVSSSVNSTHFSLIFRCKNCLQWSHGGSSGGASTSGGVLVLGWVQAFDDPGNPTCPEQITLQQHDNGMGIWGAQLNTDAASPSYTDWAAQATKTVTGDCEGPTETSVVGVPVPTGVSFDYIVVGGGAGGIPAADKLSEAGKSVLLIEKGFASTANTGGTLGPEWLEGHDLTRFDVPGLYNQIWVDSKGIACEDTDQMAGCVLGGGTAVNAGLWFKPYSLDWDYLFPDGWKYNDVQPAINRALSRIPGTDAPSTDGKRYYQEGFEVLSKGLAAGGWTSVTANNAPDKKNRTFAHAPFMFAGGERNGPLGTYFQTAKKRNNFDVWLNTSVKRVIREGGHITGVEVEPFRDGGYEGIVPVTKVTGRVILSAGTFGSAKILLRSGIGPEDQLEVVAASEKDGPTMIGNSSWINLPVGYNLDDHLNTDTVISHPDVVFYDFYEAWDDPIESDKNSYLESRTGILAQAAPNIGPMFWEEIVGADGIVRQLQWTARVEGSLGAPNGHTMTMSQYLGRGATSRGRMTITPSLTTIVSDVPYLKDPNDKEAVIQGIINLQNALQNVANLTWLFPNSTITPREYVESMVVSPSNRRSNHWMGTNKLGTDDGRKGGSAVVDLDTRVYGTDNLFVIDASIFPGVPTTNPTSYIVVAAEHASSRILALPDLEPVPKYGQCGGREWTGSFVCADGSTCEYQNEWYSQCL
Myriococcum thermophilum cellobiose dehydrogenase (CDH, SEQ ID NO: 1) variant C312Y/W316L, sequence (A9XK88 entry or part of it C312Y/W316L): as the sequence (A9XK88 entry or part of it C312Y) above, with W295L counted along it
Myriococcum thermophilum cellobiose dehydrogenase (CDH, SEQ ID NO: 1) variant C312Y/W316R, sequence (A9XK88 entry or part of it C312Y/W316R): as the sequence (A9XK88 entry or part of it C312Y) above, with W295R counted along it

As to `OC[C@H]1O[C@H](O[C@H]2[C@H](O)[C@@H](O)C(O)O[C@@H]2CO)[C@H](O)[C@@H](O)[C@@H]1O` (stereo partly shown) [Maltose, maltose], the kcat in assay [1] was 0.86 s⁻¹; in assay [2] it was ~0.92 s⁻¹; in assay [3] it was 0.48 s⁻¹; in assay [4], ~2.7 s⁻¹. Besides, the kcat/KM in assay [1] is 296 M⁻¹ s⁻¹; in assay [2], 0.62 M⁻¹ s⁻¹; in assay [3] it was 3.5 M⁻¹ s⁻¹; in assay [4], 0.17 M⁻¹ s⁻¹.

`OC[C@H]1OC(O)[C@H](O)[C@@H](O)[C@@H]1O` (stereo partly shown) [Glucose, glucose]: the kcat in assay [1] is 8.8 s⁻¹; in assay [2], 6.4 s⁻¹; in assay [3] it was 9.6 s⁻¹; in assay [4] it was 4.3 s⁻¹. The kcat/KM in assay [1] came to 79.1 M⁻¹ s⁻¹; in assay [2] it was 13 M⁻¹ s⁻¹; in assay [3] it was 50 M⁻¹ s⁻¹; in assay [4], 6.2 M⁻¹ s⁻¹.
